# Assay results taken from patent US7547690B2, “Compounds for the treatment of Hepatitis C” (Bristol-Myers Squibb Company, priority 2007, dated 2009).
# What was measured:
# HCV replicon cells = assay: HCV replicon FRET / luciferase assay; type: cell-based; conditions: Hepatitis C virus, 50% reduction in FRET or luciferase activity in HCV replicon cells; read-out: EC50
# Method in brief: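 HCV replicon cells (with or without Renilla luciferase reporter) incubated with titrated compounds at 37° C; cytotoxicity read by Alamar blue. Replicon activity then read by NS3 cleavage of EDANS/DABCYL FRET peptide (20 μM final, 340/490 nm kinetic) or by luciferase; background from highest control-inhibitor wells subtracted; EC50 = concentration giving 50% signal reduction.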
# HCV NS5B = biological target: T1, HCV NS5B (Hepatitis C virus genotype 1b, UniProt Q9WMX2); assay: HCV NS5B RdRp enzyme assay (standard / modified); type: biochemical; conditions: HCV RdRp genotype 1b; standard or modified assay not specified; read-out: IC50
# T1 construct: The protein was expressed with an 18 amino acid C-terminal truncation to enhance the solubility; made in house; host or cells: E. coli BL21(DE3)
# T1 sequence (Q9WMX2 2420-2992): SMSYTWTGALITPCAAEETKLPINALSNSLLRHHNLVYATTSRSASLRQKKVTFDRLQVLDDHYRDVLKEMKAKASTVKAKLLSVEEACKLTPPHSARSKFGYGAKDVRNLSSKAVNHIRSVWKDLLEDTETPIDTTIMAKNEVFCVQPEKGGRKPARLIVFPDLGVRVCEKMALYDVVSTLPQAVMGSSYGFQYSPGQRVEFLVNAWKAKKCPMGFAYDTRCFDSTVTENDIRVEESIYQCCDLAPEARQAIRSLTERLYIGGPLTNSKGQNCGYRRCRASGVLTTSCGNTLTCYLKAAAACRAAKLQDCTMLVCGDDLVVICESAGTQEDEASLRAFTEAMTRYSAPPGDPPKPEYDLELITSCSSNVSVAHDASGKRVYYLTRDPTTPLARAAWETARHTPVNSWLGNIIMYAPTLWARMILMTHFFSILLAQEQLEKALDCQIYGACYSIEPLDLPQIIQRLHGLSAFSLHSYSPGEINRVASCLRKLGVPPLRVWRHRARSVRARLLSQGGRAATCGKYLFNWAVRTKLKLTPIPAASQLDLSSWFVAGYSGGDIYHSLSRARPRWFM
# Method in brief: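 Genotype 1b NS5B, 18-aa C-terminal truncation, E. coli-expressed; polyA template with biotin-oligo-dT12 primer, 3H-UTP (0.29 μM UTP), pH 7.5 Hepes, 2% DMSO, 30 °C, SPA read. Standard: 28 nM enzyme, 6 nM template, 180 nM primer, 60 min. Modified: 1.75 nM enzyme, 0.36 nM template, 20 nM bead-precaptured primer, 4 h; IC50 from seven concentrations, four-parameter fit.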
SMILES,EC50 (HCV replicon cells) [nM],IC50 (HCV NS5B) [nM]
COc1ccc2c(c1)[C@@H]1C[C@]1(C(=O)N1CC3CC1CN3C)Cn1c-2c(C2CCCCC2)c2ccc(C(=O)NS(=O)(=O)N(C)C)cc21 (some centres unmarked),2.4 to 500,< 20
COc1ccc2c(c1)[C@H]1C[C@@]1(C(=O)N1CC3CC1CN3C)Cn1c-2c(C2CCCCC2)c2ccc(C(=O)NS(=O)(=O)N(C)C)cc21 (some centres unmarked),2.4 to 500,2.4 to 500
COc1ccc2c(c1)C1CC1(C(=O)N1CCN3CCC1CC3)Cn1c-2c(C2CCCCC2)c2ccc(C(=O)NS(=O)(=O)N(C)C)cc21 (centres unmarked),2.4 to 500,2.4 to 500
COc1ccc2c(c1)C1CC1(C(=O)N1C[C@H]3C[C@@H](C1)c1cccc(=O)n1C3)Cn1c-2c(C2CCCCC2)c2ccc(C(=O)NS(=O)(=O)N(C)C)cc21 (some centres unmarked),2.4 to 500,< 70
COc1ccc2c(c1)C1CC1(C(=O)N1[C@@H]3C[C@H]1CN(C(=O)N(C)C)C3)Cn1c-2c(C2CCCCC2)c2ccc(C(=O)NS(=O)(=O)N(C)C)cc21 (some centres unmarked),2.4 to 500,2.4 to 500
COc1ccc2c(c1)C1CC1(C(=O)N1[C@@H]3C[C@H]1CN(C(C)=O)C3)Cn1c-2c(C2CCCCC2)c2ccc(C(=O)NS(=O)(=O)N(C)C)cc21 (some centres unmarked),2.4 to 500,2.4 to 500
COc1ccc2c(c1)[C@@H]1C[C@]1(C(=O)N1C[C@@H]3C[C@H]1CN3C(=O)OC(C)(C)C)Cn1c-2c(C2CCCCC2)c2ccc(C(=O)NS(=O)(=O)N(C)C)cc21,2.4 to 500,2.4 to 500
COc1ccc2c(c1)[C@@H]1C[C@]1(C(=O)N1[C@@H]3C[C@H]1CN(Cc1ccccc1)C3)Cn1c-2c(C2CCCCC2)c2ccc(C(=O)NS(=O)(=O)N(C)C)cc21,2.4 to 500,2.4 to 500
COc1ccc2c(c1)[C@@H]1C[C@]1(C(=O)N1[C@@H]3C[C@H]1CN(C)C3)Cn1c-2c(C2CCCCC2)c2ccc(C(=O)NS(=O)(=O)N(C)C)cc21,2.4 to 500,2.4 to 500
COc1ccc2c(c1)C1CC1(C(=O)N1C[C@@H]3C[C@H]1CN3C(=O)OC(C)(C)C)Cn1c-2c(C2CCCCC2)c2ccc(C(=O)NS(=O)(=O)C3CC3)cc21 (some centres unmarked),2.4 to 500,2.4 to 500
COc1ccc2c(c1)C1CC1(C(=O)N1C3CC1CN(Cc1ccccc1)C3)Cn1c-2c(C2CCCCC2)c2ccc(C(=O)NS(=O)(=O)C3CC3)cc21 (centres unmarked),2.4 to 500,2.4 to 500
COc1ccc2c(c1)C1CC1(C(=O)N1CCN3CCC1CC3)Cn1c-2c(C2CCCCC2)c2ccc(C(=O)NS(=O)(=O)N3CCN(C)CC3)cc21 (centres unmarked),2.4 to 500,2.4 to 500
COc1ccc2c(c1)C1CC1(C(=O)N1C3CNCC1C3)Cn1c-2c(C2CCCCC2)c2ccc(C(=O)NS(=O)(=O)C3CC3)cc21 (centres unmarked),2.4 to 500,2.4 to 500
CCN1C[C@H]2C[C@@H]1CN2C(=O)C12CC1c1cc(OC)ccc1-c1c(C3CCCCC3)c3ccc(C(=O)NS(N)(=O)=O)cc3n1C2 (some centres unmarked),2.4 to 500,2.4 to 500
COc1ccc2c(c1)C1CC1(C(=O)N1C[C@H]3C[C@@H]1CN3CC(C)C)Cn1c-2c(C2CCCCC2)c2ccc(C(=O)NS(N)(=O)=O)cc21 (some centres unmarked),2.4 to 500,2.4 to 500
COc1ccc2c(c1)C1CC1(C(=O)N1C[C@H]3C[C@@H]1CN3C)Cn1c-2c(C2CCCCC2)c2ccc(C(=O)NS(N)(=O)=O)cc21 (some centres unmarked),2.4 to 500,2.4 to 500
COc1ccc2c(c1)C1CC1(C(=O)N1C[C@H]3C[C@@H]1CN3C(=O)OC(C)(C)C)Cn1c-2c(C2CCCCC2)c2ccc(C(=O)NS(=O)(=O)C(C)C)cc21 (some centres unmarked),2.4 to 500,2.4 to 500
COc1ccc2c(c1)C1CC1(C(=O)N1CCN3CCC1CC3)Cn1c-2c(C2CCCCC2)c2ccc(C(=O)NS(C)(=O)=O)cc21 (centres unmarked),2.4 to 500,2.4 to 500
COc1ccc2c(c1)C1CC1(C(=O)N1C[C@H]3C[C@@H]1CN3C(=O)OC(C)(C)C)Cn1c-2c(C2CCCCC2)c2ccc(C(=O)NS(C)(=O)=O)cc21 (some centres unmarked),2.4 to 500,2.4 to 500
CCN1C[C@H]2C[C@@H]1CN2C(=O)C12CC1c1cc(OC)ccc1-c1c(C3CCCCC3)c3ccc(C(=O)NS(C)(=O)=O)cc3n1C2 (some centres unmarked),2.4 to 500,2.4 to 500
COc1ccc2c(c1)C1CC1(C(=O)N1C[C@@H]3C[C@H]1CN3C)Cn1c-2c(C2CCCCC2)c2ccc(C(=O)NS(C)(=O)=O)cc21 (some centres unmarked),2.4 to 500,2.4 to 500
COc1ccc2c(c1)C1CC1(C(=O)N1[C@@H]3C[C@H]1CN(C)C3)Cn1c-2c(C2CCCCC2)c2ccc(C(=O)NS(N)(=O)=O)cc21 (some centres unmarked),2.4 to 500,2.4 to 500

SMILES,EC50 (HCV replicon cells) [nM],IC50 (HCV NS5B) [nM]
COc1ccc2c(c1)C1CC1(C(=O)N1[C@@H]3C[C@H]1CN(C)C3)Cn1c-2c(C2CCCCC2)c2ccc(C(=O)NS(C)(=O)=O)cc21 (some centres unmarked),2.4 to 500,2.4 to 500
COc1ccc2c(c1)C1CC1(C(=O)N1C3COCC1CN(C(C)=O)C3)Cn1c-2c(C2CCCCC2)c2ccc(C(=O)NS(=O)(=O)N(C)C)cc21 (centres unmarked),2.4 to 500,2.4 to 500
COc1ccc2c(c1)C1CC1(C(=O)N1C3CCCC1CN(C)C3)Cn1c-2c(C2CCCCC2)c2ccc(C(=O)NS(C)(=O)=O)cc21 (centres unmarked),2.4 to 500,2.4 to 500
COc1ccc2c(c1)C1CC1(C(=O)N1C3CCCC1CN(C)C3)Cn1c-2c(C2CCCCC2)c2ccc(C(=O)NS(=O)(=O)C3CC3)cc21 (centres unmarked),2.4 to 500,2.4 to 500
COc1ccc2c(c1)C1CC1(C(=O)N1C3COCC1CN(C)C3)Cn1c-2c(C2CCCCC2)c2ccc(C(=O)NS(=O)(=O)N(C)C)cc21 (centres unmarked),2.4 to 500,2.4 to 500
CCS(=O)(=O)NC(=O)c1ccc2c(C3CCCCC3)c3n(c2c1)CC1(C(=O)N2C4CCCC2CN(C)C4)CC1c1cc(OC)ccc1-3 (centres unmarked),2.4 to 500,2.4 to 500
CCCS(=O)(=O)NC(=O)c1ccc2c(C3CCCCC3)c3n(c2c1)CC1(C(=O)N2C4CCCC2CN(C)C4)CC1c1cc(OC)ccc1-3 (centres unmarked),2.4 to 500,2.4 to 500
COc1ccc2c(c1)C=C(C(=O)N1C3CCCC1CN(C)C3)Cn1c-2c(C2CCCCC2)c2ccc(C(=O)NS(=O)(=O)N(C)C)cc21,2.4 to 500,2.4 to 500
COc1ccc2c(c1)C1CC1(C(=O)N1C3CCCC1CN(C)C3)Cn1c-2c(C2CCCCC2)c2ccc(C(=O)NS(=O)(=O)N3CCOCC3)cc21 (centres unmarked),2.4 to 500,2.4 to 500
COc1ccc2c(c1)C1CC1(C(=O)N1C3CC1CN(C)C3)Cn1c-2c(C2CCCCC2)c2ccc(C(=O)NS(=O)(=O)CC3CC3)cc21 (centres unmarked),2.4 to 500,2.4 to 500
COc1ccc2c(c1)C1CC1(C(=O)N1C3CC1CN(C)C3)Cn1c-2c(C2CCCCC2)c2ccc(C(=O)NS(=O)(=O)C3CCOCC3)cc21 (centres unmarked),2.4 to 500,2.4 to 500
COc1ccc2c(c1)C1CC1(C(=O)N1C3CC1CN(C)C3)Cn1c-2c(C2CCCCC2)c2ccc(C(=O)NS(=O)(=O)CC3CCCO3)cc21 (centres unmarked),2.4 to 500,2.4 to 500
COc1ccc2c(c1)C1CC1(C(=O)N1C3COC[C@@H]1CN(C)C3)Cn1c-2c(C2CCCCC2)c2ccc(C(=O)NS(=O)(=O)CC(C)C)cc21 (some centres unmarked),2.4 to 500,2.4 to 500
COc1ccc2c(c1)C1CC1(C(=O)N1C3COC[C@@H]1CN(C)C3)Cn1c-2c(C2CCCCC2)c2ccc(C(=O)NS(=O)(=O)C(C)C)cc21 (some centres unmarked),2.4 to 500,2.4 to 500
COc1ccc2c(c1)C1CC1(C(=O)N1C3COC[C@@H]1CN(C)C3)Cn1c-2c(C2CCCCC2)c2ccc(C(=O)NS(=O)(=O)C3CCCC3)cc21 (some centres unmarked),2.4 to 500,2.4 to 500
COc1ccc2c(c1)C1CC1(C(=O)N1C3COC[C@@H]1CN(C)C3)Cn1c-2c(C2CCCCC2)c2ccc(C(=O)NS(=O)(=O)C3CCCCC3)cc21 (some centres unmarked),2.4 to 500,2.4 to 500
COc1ccc2c(c1)C1CC1(C(=O)N1C3COC[C@@H]1CN(C)C3)Cn1c-2c(C2CCCCC2)c2ccc(C(=O)NS(=O)(=O)CC(F)(F)F)cc21 (some centres unmarked),2.4 to 500,2.4 to 500
COc1ccc2c(c1)C1CC1(C(=O)N1C3COC[C@@H]1CN(C)C3)Cn1c-2c(C2CCCCC2)c2ccc(C(=O)NS(=O)(=O)CCC(F)(F)F)cc21 (some centres unmarked),2.4 to 500,2.4 to 500
COc1ccc2c(c1)[C@@H]1C[C@]1(C(=O)N1C3CCC1CN(C)CC3)Cn1c-2c(C2CCCCC2)c2ccc(C(=O)NS(=O)(=O)C(C)C)cc21 (some centres unmarked),2.4 to 500,2.4 to 500
COc1ccc2c(c1)[C@@H]1C[C@]1(C(=O)N1C3CN(C)CC1CN(C(C)=O)C3)Cn1c-2c(C2CCCCC2)c2ccc(C(=O)NS(=O)(=O)N(C)C)cc21,2.4 to 500,2.4 to 500
COCCN1CC2CCC1CN2C(=O)[C@]12C[C@H]1c1cc(OC)ccc1-c1c(C3CCCCC3)c3ccc(C(=O)NS(=O)(=O)C(C)C)cc3n1C2 (some centres unmarked),2.4 to 500,2.4 to 500
